Reference: patent US11623932B2, “Protein degraders and uses thereof” (Kymera Therapeutics, Inc., priority 2017, dated 2023)
pIC50: −log10 of the molar value.

Columns and labels:
[1] = molecular target: BRD4 (Homo sapiens (Human), UniProt O60885); test: BRD4 degradation in NAMALWA cells, Western Blot; format: cell-based; conditions: 2 h
[2] = molecular target: Untagged CRBN-DDB1 complex (Homo sapiens (Human), UniProt Q96SW2); test: Fluorescence polarization (FP) assay, displacement of Cy5-labeled thalidomide; format: binding; conditions: Cy5-labeled thalidomide 20 nM, 10 min at room temperature
Description: The final solution contained 50 mM HEPES, 200 mM NaCl and 2 mM DTT, pH 7.5. The mixtures were incubated at room temperature for 10 min. The FP signals were recorded on an EnVision plate reader (Perkin Elmer) using the following settings: Excitation Light (%): 100; Measurement Height: 12; G-Factor: 1; Detector Gain 1: 500; Detector Gain 2: 500; Flash Number: 100. Dose-dependent loss of FP signals was fitted by four-parameter Logistic Function using GraphPad Prism 7.0 and the IC50 values were reported for each compound.
The compound numbers correspond to the compound numbers in the examples.

Sequence of Untagged CRBN-DDB1 complex (Q96SW2 whole entry): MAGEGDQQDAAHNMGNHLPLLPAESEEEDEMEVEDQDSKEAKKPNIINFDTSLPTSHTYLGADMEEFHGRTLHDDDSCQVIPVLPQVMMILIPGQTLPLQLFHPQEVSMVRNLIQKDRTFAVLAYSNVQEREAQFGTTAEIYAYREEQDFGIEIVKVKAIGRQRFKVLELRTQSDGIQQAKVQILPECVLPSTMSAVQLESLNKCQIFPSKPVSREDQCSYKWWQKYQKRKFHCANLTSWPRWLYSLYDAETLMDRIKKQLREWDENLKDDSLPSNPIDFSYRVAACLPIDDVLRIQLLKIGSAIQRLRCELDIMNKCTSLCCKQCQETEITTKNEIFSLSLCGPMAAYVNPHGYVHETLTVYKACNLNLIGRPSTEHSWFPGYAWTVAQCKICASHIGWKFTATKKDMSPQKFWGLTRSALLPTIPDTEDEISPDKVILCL
Sequence of Untagged CRBN-DDB1 complex (Q16531 whole entry partner): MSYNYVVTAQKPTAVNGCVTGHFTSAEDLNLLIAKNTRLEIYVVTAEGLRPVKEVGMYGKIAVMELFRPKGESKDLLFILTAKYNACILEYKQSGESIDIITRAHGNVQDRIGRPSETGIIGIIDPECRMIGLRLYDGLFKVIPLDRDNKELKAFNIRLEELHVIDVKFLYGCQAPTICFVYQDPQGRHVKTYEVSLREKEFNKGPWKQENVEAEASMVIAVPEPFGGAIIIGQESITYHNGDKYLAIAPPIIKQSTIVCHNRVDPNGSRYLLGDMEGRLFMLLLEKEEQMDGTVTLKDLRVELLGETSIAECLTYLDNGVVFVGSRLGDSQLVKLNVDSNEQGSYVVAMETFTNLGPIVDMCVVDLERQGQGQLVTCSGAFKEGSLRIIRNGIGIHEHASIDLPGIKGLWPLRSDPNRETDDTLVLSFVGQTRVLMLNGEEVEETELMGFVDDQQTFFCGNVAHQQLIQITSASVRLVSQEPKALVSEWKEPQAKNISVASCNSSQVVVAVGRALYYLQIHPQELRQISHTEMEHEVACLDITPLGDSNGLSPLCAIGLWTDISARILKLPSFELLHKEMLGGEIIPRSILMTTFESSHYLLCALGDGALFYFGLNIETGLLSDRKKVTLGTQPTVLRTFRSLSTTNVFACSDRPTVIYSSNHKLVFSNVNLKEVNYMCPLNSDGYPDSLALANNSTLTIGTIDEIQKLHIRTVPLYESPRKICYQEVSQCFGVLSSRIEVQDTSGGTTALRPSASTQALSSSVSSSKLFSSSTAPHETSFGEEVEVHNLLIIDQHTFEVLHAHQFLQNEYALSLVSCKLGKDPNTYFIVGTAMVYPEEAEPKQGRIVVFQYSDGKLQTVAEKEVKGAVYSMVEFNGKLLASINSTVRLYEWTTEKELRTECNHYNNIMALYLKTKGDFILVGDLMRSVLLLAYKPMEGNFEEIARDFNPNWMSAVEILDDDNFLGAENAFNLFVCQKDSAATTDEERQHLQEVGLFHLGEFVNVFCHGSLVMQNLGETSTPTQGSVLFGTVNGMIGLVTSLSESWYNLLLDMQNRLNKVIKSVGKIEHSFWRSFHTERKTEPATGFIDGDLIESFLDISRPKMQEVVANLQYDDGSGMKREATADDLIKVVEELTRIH

% BRD4 degradation ([1]; 0.0003 uM)	% BRD4 degradation ([1]; 0.001 uM)	pIC50 [2]	Structure (SMILES)	% BRD4 degradation ([1]; 0.003 uM)	% BRD4 degradation ([1]; 0.01 uM)	% BRD4 degradation ([1]; 0.03 uM)	% BRD4 degradation ([1]; 0.1 uM)	% BRD4 degradation ([1]; 0.3 uM)	% BRD4 degradation ([1]; 1 uM)
C (40 to 60 percent protein degradation)	C (40 to 60 percent protein degradation)	–	Cc1sc2c(c1C)C(c1ccc(Cl)cc1)=N[C@@H](CC(=O)NCCOCCOCCCc1cccc3c1n(C)c(=O)n3C1CCC(=O)NC1=O)c1nnc(C)n1-2 (stereo partly drawn) [Compound I-36, 2-((S)-4-(4-chlorophenyl)-2,3,9-trimethyl-6H-thieno[3,2-f][1,2,4]triazolo[4,3-a][1,4]diazepin-6-yl)-N-(2-(2-(3-(1-(2,6-dioxopiperidin-3-yl)-3-methyl-2-oxo-2,3-dihydro-1H-benzo[d]imidazol-4-yl)propoxy)ethoxy)ethyl)acetamide]	C (40 to 60 percent protein degradation)	C (40 to 60 percent protein degradation)	B (60 to 80 percent protein degradation)	B (60 to 80 percent protein degradation)	B (60 to 80 percent protein degradation)	B (60 to 80 percent protein degradation)
–	–	< 4.00	O=C1CCC(N2C(=O)Cc3ccccc32)C(=O)N1 (stereo not drawn) [Compound 3, 3-(2-Oxo-2,3-dihydro-1H-indol-1-yl)piperidine-2,6-dione]	–	–	–	–	–	–
B (60 to 80 percent protein degradation)	B (60 to 80 percent protein degradation)	–	Cc1sc2c(c1C)C(c1ccc(Cl)cc1)=N[C@@H](CC(=O)NCCOCCOCCOCCn1c(=O)n(C3CCC(=O)NC3=O)c3ccccc31)c1nnc(C)n1-2 (stereo partly drawn) [Compound I-37, 2-((S)-4-(4-Chlorophenyl)-2,3,9-trimethyl-6H-thieno[3,2-f][1,2,4]triazolo[4,3-a][1,4]diazepin-6-yl)-N-(2-(2-(2-(2-(3-(2,6-dioxopiperidin-3-yl)-2-oxo-2,3-dihydro-1H-benzo[d]imidazol-1-yl)ethoxy)ethoxy)ethoxy)ethyl)acetamide]	A (greater than 80 percent protein degradation)	A (greater than 80 percent protein degradation)	A (greater than 80 percent protein degradation)	A (greater than 80 percent protein degradation)	A (greater than 80 percent protein degradation)	A (greater than 80 percent protein degradation)

Structure (SMILES)	% BRD4 degradation ([1]; 0.0003 uM)	% BRD4 degradation ([1]; 0.001 uM)	pIC50 [2]	% BRD4 degradation ([1]; 0.003 uM)	% BRD4 degradation ([1]; 0.01 uM)	% BRD4 degradation ([1]; 0.03 uM)	% BRD4 degradation ([1]; 0.1 uM)	% BRD4 degradation ([1]; 0.3 uM)	% BRD4 degradation ([1]; 1 uM)
Cc1sc2c(c1C)C(c1ccc(Cl)cc1)=N[C@@H](CC(=O)NCCOCCOCCn1c(=O)n(C3CCC(=O)NC3=O)c3ccccc31)c1nnc(C)n1-2 (stereo partly drawn) [Compound I-38, 2-((S)-4-(4-chlorophenyl)-2,3,9-trimethyl-6H-thieno[3,2-f][1,2,4]triazolo[4,3-a][1,4]diazepin-6-yl)-N-(2-(2-(2-(3-(2,6-dioxopiperidin-3-yl)-2-oxo-2,3-dihydro-1H-benzo[d]imidazol-1-yl)ethoxy)ethoxy)ethyl)acetamide]	D (less than 40 percent protein degradation)	B (60 to 80 percent protein degradation)	–	A (greater than 80 percent protein degradation)	A (greater than 80 percent protein degradation)	A (greater than 80 percent protein degradation)	A (greater than 80 percent protein degradation)	A (greater than 80 percent protein degradation)	A (greater than 80 percent protein degradation)
Cc1sc2c(c1C)C(c1ccc(Cl)cc1)=N[C@@H](CC(=O)NCCOCCOCCCc1ccc3c(c1)n(C)c(=O)n3C1CCC(=O)NC1=O)c1nnc(C)n1-2 (stereo partly drawn) [Compound I-35, 2-((S)-4-(4-chlorophenyl)-2,3,9-trimethyl-6H-thieno[3,2-f][1,2,4]triazolo[4,3-a][1,4]diazepin-6-yl)-N-(2-(2-(3-(1-(2,6-dioxopiperidin-3-yl)-3-methyl-2-oxo-2,3-dihydro-1H-benzo[d]imidazol-5-yl)propoxy)ethoxy)ethyl)acetamide]	B (60 to 80 percent protein degradation)	A (greater than 80 percent protein degradation)	–	A (greater than 80 percent protein degradation)	A (greater than 80 percent protein degradation)	A (greater than 80 percent protein degradation)	A (greater than 80 percent protein degradation)	A (greater than 80 percent protein degradation)	A (greater than 80 percent protein degradation)
